Entries after “also recorded” stand apart in the source; their conditions may differ.
How the values were obtained:
[1] = system: stimulated human monocytic THP-1 cells; assay: Viability of LPS plus IFN-γ stimulated THP-1 cells (MTT assay); format: cell-based; conditions: 1–100 μM, added 15 min before LPS plus IFN-γ, 24 h
Description: (§1) The MTT assay was performed as described by Mosmann and by Hansen et al.. Cell viability was determined by adding MTT to the cell cultures to reach a final concentration of 500 μg mL^−1. Following one h incubation at 37 °C, the dark purple crystals formed by viable cells were dissolved by adding to the wells an equal volume of the extraction buffer containing 20% sodium dodecyl sulfate and 50% N,N-dimethylformamide, pH 4.7. After overnight incubation at 37 °C, 100 μL aliquots of MTT solutions were transferred to a 96-well plate, and a FLUOstar Omega platereader (BMG Labtech, Offenburg, Germany) was used to measure the optical densities at 570 nm. Cell viability in various samples was calculated as percent of the optical density value obtained with cells incubated in fresh cell culture medium only.
(§2) The anti-neurotoxic activity of the compounds was evaluated using a method described previously. Human monocytic THP-1 cells were transferred to 24-well plates in 800 µL aliquots of 5 × 10^5 cells mL^−1 per well. The cells were pre-incubated with varying concentrations of pyrazole derivatives or their DMSO vehicle solution for 15 min before stimulation with a combination of lipopolysaccharide (LPS, 0.5 µg mL^−1) and human interferon-γ (IFN-γ, 150 U mL^−1). […] After 24 h incubation, 400 µL of supernatants from THP-1 cells was transferred to SH-SY5Y cells (seeded 24 h earlier in 24-well plates; 400 µL of 2 × 10^5 cells mL^−1). The viability of THP-1 cells was measured by the MTT assay immediately after the transfer of the supernatants. The effects of THP-1 cell supernatants on SH-SY5Y neuronal cell viability were measured by the MTT assay after 72 h incubation. […] The concentrations of stimuli and incubation times of THP-1 cells with the stimuli were selected in preliminary experiments so that significant partial killing of SH-SY5Y cells was achieved (20–30% viable cells left), which could be a result of the combined action of cytotoxins secreted by THP-1 cells and depletion of nutrients from the cell culture medium by the stimulated THP-1 cells.

[2] = system: immune-stimulated human THP-1 monocytic cells (toxicity toward SH-SY5Y neuronal cells); assay: Anti-neurotoxic activity: supernatants of compound-treated stimulated THP-1 cells transferred to SH-SY5Y cells (MTT assay); format: cell-based; conditions: for IC50: Homo sapiens, estimated from Figure 4, read-out: IC50 for reducing toxic effect of stimulated THP-1 supernatants on SH-SY5Y cells
Description: as §1, §2

SH-SY5Y cells [3] = assay: Neuroprotective activity: compounds added directly to SH-SY5Y cells with stimulated THP-1 supernatants (MTT assay); format: cell-based, human
Description: as §1
SH-SY5Y cells were seeded into 24-well plates (400 µL at 2 × 10^5 cells mL^−1). After 24 h incubation, the cell culture medium was replaced with 400 µL of supernatants from THP-1 cells that had been stimulated for 24 h with LPS plus IFN-γ, as described in 2.6. Varying concentrations of the compounds or the DMSO vehicle solution were added directly to SH-SY5Y cells at the time of the supernatant transfer. The viability of SH-SY5Y cells was measured by the MTT assay 72 h later.

[4] = system: human PC-3 prostate cancer cells; assay: Cytotoxicity of pyrazole derivatives to PC-3 cells (MTT assay); format: cell-based; conditions: 100 μM (highest concentration tested), 48 h
Description: as §1
PC-3 prostate cancer cells were transferred to 24-well plates in 500 µL aliquots of 1.5 × 10^5 cells mL^−1 per well. Varying concentrations of the pyrazole derivatives or the 0.5% DMSO vehicle were added to the cells. After 48 h incubation, cell viability was measured by using the MTT assay.

SH-SY5Y cells [5] = system: SH-SY5Y cells; parameters: method as in PMID 20609589; conditions: earlier report; cited from earlier work

SMILES | toxicity to stimulated THP-1 cells (cell viability, MTT) [1] | IC50 [2] | melting point | other results
N#Cc1cnn(-c2ccccc2)c1NC(=O)C(=O)Nc1ccc(N)cc1 [2e] | None of these six derivatives were toxic | 10 to 50 µM | 258 to 261 °C | –
N#Cc1cnn(-c2ccccc2)c1NC(=O)C(=O)NCCCCCCCCCN [2a] | None of these six derivatives were toxic | 50 to 100 µM | 108 to 110 °C | concentrations at which the protective effect was statistically significant ([2]; tested 1–100 μM, Dunnett's post-hoc test): 100 µM
N#Cc1cnn(-c2ccccc2)c1NC(=O)C(=O)Nc1ccc(O)cc1 [2f] | – | – | 237 to 239 °C | –
CN(C)C(=O)C(=O)Nc1c(C#N)cnn1-c1ccccc1 [2c] | None of these six derivatives were toxic | 10 to 50 µM | 250 to 253 °C | –
N#Cc1cnn(-c2ccccc2)c1NC(=O)C(=O)N(C1CCCCC1)C1CCCCC1 [2b] | None of these six derivatives were toxic | 10 to 50 µM | 188 to 190 °C | –
CN(C)CCOC(=O)C(=O)Nc1c(C#N)cnn1-c1ccccc1 [compound 3] | None of these six derivatives were toxic | 10 to 50 µM | 139 to 141 °C | direct neuroprotective effect on SH-SY5Y cells (SH-SY5Y cells [3]; 1–100 μM, added at the time of supernatant transfer): neuroprotective effect; viability at 100 µM (SH-SY5Y cells [3]; Homo sapiens, SH-SY5Y, 100 μM, 72 h, without compound 20–30%): > 40%
C=CCNC(=O)C(=O)Nc1c(C#N)cnn1-c1ccccc1 [2d] | None of these six derivatives were toxic | – | 108 to 110 °C | change in PC-3 cell viability [4]: small yet significant increase in cell viability; change in SH-SY5Y cell viability ([2]; 100 μM, supernatant transfer from treated THP-1 cells, 72 h): small but significant decrease in SH-SY5Y cell viability; also recorded: small yet significant reduction of SH-SY5Y cell viability; protective (anti-neurotoxic) effect ([2]; 1–100 μM): no protective effect; change in SH-SY5Y cell viability, compound added directly (SH-SY5Y cells [3]; 100 μM, 72 h): small but significant decrease in SH-SY5Y cell viability
N#Cc1cnn(-c2ccccc2)c1NC(=O)C(=O)Nc1c(C#N)cnn1-c1ccccc1 [compound 1] | – | – | – | direct neuroprotective activity (SH-SY5Y cells [5]): showed this effect
